Laboratory results taken from patent US20080057010A1, “METHOD FOR SKIN CARE” (NULIV SCIENCE LTD., priority 2006, published 2008).

Experiments:
Assay type in all cases: cell-based, human
[1] = test system: MMP-1; assay: Quantitative analysis of MMP-1 transcripts in HDF cells (qRT-PCR); settings: 0.1 μM, MMP-1 mRNA relative to 0 = 1.00
Method: Relative levels of MMP-1 expression in HDF cells were determined by qRT-PCR. Preparation of total RNA and cDNA were carried out as described in previous sections. qRT-PCR was performed using the Applied Biosystem 7300 system and pre-developed Taqman Gene Expression Assays (Applied Biosystems, Foster City, Calif., USA). The reaction was performed as described in previous sections except that primer mix for human MMP-1 (assay ID HS00233958_m1, Applied Biosystems) and GAPDH (assay ID Hs99999905_m1, Applied Biosystems) were used.
(§1) Results shown in Tables 6A and 6B represent the quantitated data from zymography analysis of MMP-2 protein in HaCaT cells and qRT-PCR for MMP-1 in HDF cells. The concentrations used were 0, 0.01. 0.1, 1 μM (if not indicated otherwise) for pure compounds; and were 0, 1, 10, 40 μg/mL for crude extract (if not indicated otherwise). The cells were treated with the indicated compounds for 24 h before harvested for analysis of Pro-MMP-2 or activated MMP-2 in whole cell extract. Fifty micrograms of the cell extract samples were used for electrophoresis.

[2] = test system: MMP-2; assay: Zymography of MMP-2 in HaCaT cells; settings: relative to 0 = 1.00
Method: The proteolytic activities of MMPs from HaCaT and HDF cells were measured essentially as described elsewhere (Circ Res, 1999; 85:906-911). The cells were seeded for 24 h and then treated with various concentrations of astragalosides for another 48 h. The conditioned culture medium was then centrifuged, 2-fold concentrated, and saved for assay of collagens and MMPs expressed into the culture medium. The cells were then lysed in lysis buffer (1% Triton, 50 mM Tris-Cl, pH 7.4, 180 mM NaCl, 1 mM EDTA). Protein concentration of the samples was measured using the bicinchoninic acid (BCA) protein assay kit as described. Samples of concentrated conditioned medium and cell lysates were mixed with non-reducing electrophoresis loading buffer and subjected to electrophoresis under non-reducing conditions, which was carried out on a 10% SDS-PAGE co-polymerized with 2 mg/mL gelatin or casein (Sigma, St. Louis, Mo. USA). For zymographic analysis of pro-MMP-2 and activated MMP-2, the total 20 μg of culture medium were used for electrophoresis. Following electrophoresis, renaturation of the proteins was achieved by incubating the gels in 25 g/L Triton X-100 at room temperature for 2×10 min. Subsequently the gels were incubated in 50 mM Tris-HCl, pH 7.5 containing 0.2 M NaCl, 0.02% Brij35 and 10 mM CaCl2 at 37° C. for 18 h. After staining the gels with Coomassie Brilliant Blue R-250 and destaining, zones of proteolytic activities became visible as transparent bands in the stained gel. In order to obtain higher sensitivity, the gels were further destained in a solution of 1% Triton x-100 (1 to 2 h). This procedure increased the signal-to-noise ratio, allowing the visualization of faint gelatinase bands at 92, 125 and greater than 200 kDa. Zymograms were read using a Molecular Dynamics (Sunnyvale, Calif., USA) computing laser densitometer with Image Quant software.
as §1

[3] = test system: HaCaT cells; assay: Proline uptake assay in HaCaT cells; settings: 0.1 μM; for Uptake rate (proline): 48 h treatment; for Percentage (%) of control proline uptake: control = 100.00
Method: The proline uptake assay was carried out as described (Biochim Biophys Acta. 1104:283-292, 1992). Briefly, HaCaT cells were seeded into a 24-well plate at a density of 3×10^4 cells/well and cultured for 24 h. The cells were then treated in the absence (solvent control) or presence of various concentrations of astragalosides or crude extracts from Astragalus membranaceus for another 48 h. The treated cells were then washed once with PBS and incubated in amino acid free medium (AAFM) for another 30 min. The treated cells were them replaced with fresh AAFM containing 50 μg/ml of ascorbate and total of 0.5 mM of L-proline containing 1 μCi [^3H] Proline (American Radiolabelled Chemicals Inc, ARC, St. Louis, Mo., USA). At designated time interval, the cells were washed with AAFM containing cold proline and then lysed in 200 μL of 2% SDS. Cell lysates were centrifuged at 15000 g for 15 min. Intracellular proline uptaken by the cells was determined by transferring 10 μL of the cell lysate to filter-bottomed UniFilter plates (Perkim-Elmer) and counted. Protein concentration of the samples were measured using the BCA protein assay kit as described above. Proline accumulated in the cells was calculated and normalized to protein concentration and uptake rate was expressed as nmole of L-proline per minute per milligram of cell protein ([…]).

Compound | MMP-1 Q-PCR [1] | ProMMP-2/MMP2 in medium ([2]; 0.01 μM) | ProMMP-2/MMP2 in medium ([2]; 0.1 μM) | ProMMP-2/MMP2 in medium ([2]; 1 μM) | Uptake rate (proline) [3] | Percentage (%) of control proline uptake [3]
CC(=O)O[C@H]1[C@H](O[C@H]2CC[C@]34C[C@]35CC[C@]3(C)[C@@H]([C@@]6(C)CC[C@@H](C(C)(C)O)O6)[C@@H](O)C[C@@]3(C)[C@@H]5C[C@H](O[C@@H]3O[C@H](CO)[C@@H](O)[C@H](O)[C@H]3O)[C@H]4C2(C)C)OC[C@@H](OC(C)=O)[C@@H]1O [isoAS1, isoastragaloside I] | 0.6 |  |  |  |  | 
astragaloside I [AS1] | 0.75 | 0.57 | 0.57 | 0.86 | 0.8627 ± 0.0741 pmol/mg/min | 124.97%
CC(=O)O[C@@H]1[C@@H](O)[C@H](O[C@H]2CC[C@]34C[C@]35CC[C@]3(C)[C@@H]([C@@]6(C)CC[C@@H](C(C)(C)O)O6)[C@@H](O)C[C@@]3(C)[C@@H]5C[C@H](O[C@@H]3O[C@H](CO)[C@@H](O)[C@H](O)[C@H]3O)[C@H]4C2(C)C)OC[C@H]1O [isoAS2, isoastragaloside II] | 0.71 |  |  |  |  | 
CC(=O)O[C@H]1[C@H](O[C@H]2CC[C@]34C[C@]35CC[C@]3(C)[C@@H]([C@@]6(C)CC[C@@H](C(C)(C)O)O6)[C@@H](O)C[C@@]3(C)[C@@H]5C[C@H](O[C@@H]3O[C@H](CO)[C@@H](O)[C@H](O)[C@H]3O)[C@H]4C2(C)C)OC[C@@H](O)[C@@H]1O [AS2, astragaloside II] | 0.25 | 0.89 | 0.89 | 0.67 | 0.9770 ± 0.1119 pmol/mg/min | 141.52%
CC(C)(O)[C@@H]1CC[C@](C)([C@H]2[C@@H](O)C[C@@]3(C)[C@@H]4C[C@H](O[C@@H]5O[C@H](CO)[C@@H](O)[C@H](O)[C@H]5O)[C@H]5C(C)(C)[C@@H](O[C@@H]6OC[C@@H](O)[C@H](O)[C@H]6O)CC[C@@]56C[C@@]46CC[C@]23C)O1 [AS4, astragaloside IV] |  |  |  |  | 0.7628 ± 0.1015 pmol/mg/min | 110.50%
CC(C)(O)[C@@H]1CC[C@](C)([C@H]2[C@@H](O)C[C@@]3(C)[C@@H]4C[C@H](O[C@@H]5O[C@H](CO)[C@@H](O)[C@H](O)[C@H]5O)[C@H]5C(C)(C)[C@@H](O[C@@H]6OC[C@@H](O)[C@H](O)[C@H]6O[C@@H]6O[C@H](CO)[C@@H](O)[C@H](O)[C@H]6O)CC[C@@]56C[C@@]46CC[C@]23C)O1 [AS6, astragaloside VI] |  | 0.89 | 0.67 | 0.74 |  | 
CC(C)(O)[C@@H]1CC[C@](C)([C@H]2[C@@H](O)C[C@@]3(C)[C@@H]4C[C@H](O)[C@H]5C(C)(C)[C@@H](O[C@@H]6OC[C@@H](O)[C@H](O)[C@H]6O[C@@H]6O[C@H](CO)[C@@H](O)[C@H](O)[C@H]6O)CC[C@@]56C[C@@]46CC[C@]23C)O1 [AS3, astragaloside III] |  | 0.76 | 0.57 | 0.81 | 0.7213 ± 0.0090 pmol/mg/min | 104.48%
